From patent publication US9359322B2, “C-linked glucuronide of N-(4-hydroxybenzyl) retinone, analogs thereof, and methods of using the same to inhibit neoplastic cell growth” (Wisconsin Alumni Research Foundation, priority 2005, dated 2016)

Experiments:
[1] = Terminal plasma drug levels (plasma retinoid assay, HPLC); format: in vivo, rat; settings: day 22 of treatment; 2 mmol/kg diet; ± SEM
Procedure: (§1) Plasma Retinoid Assay. To 500 μL of plasma was added 150 μL of ethanol containing 0.75 μg of internal standard (N-(4-chlorophenyl) retinamide). After mixing 30 sec., 500 μL of ethyl acetate was added followed by 1 min. of mixing and centrifugation for 5 minutes at 1000 rpm in an IEC CL centrifuge. The ethyl acetate layer was removed and syringe filtered through a 0.45 um filter. The ethyl acetate extraction was repeated two more times. The combined extracts were evaporated and the residue reconstituted in 100 μL of methanol. The methanol extract (20 μL) was analyzed by HPLC on a Beckman Instruments model 127 instrument equipped with a model 166 UV detector. Chromatography was done on a precolumn equipped 250×4.6 mm Bechman Ultrasphere ODS column with an 85% methanol/water mobile phase (both containing 10 mM ammonium acetate) flowing at 1 mL/min. Analysis for both internal standard and retinol was conducted at 350 nm and internal standard recoveries and retinol levels were determined by comparison with standard curves, with adjustment of the retinol level based on recovery. Recoveries of internal standard averaged ca. 78%. […] In the 4-HPR treated group, plasma levels of this retinoid were evaluated simultaneously in the same samples as above. In order to avoid interfering substances, plasma treatment retinoid levels for RA and 4-HBRCG were measured using the above system and a step gradient of 75% methanol for 15 min. followed by 85% methanol for 40 minutes.

[2] = Plasma retinol level (HPLC); format: in vivo, rat; settings: 2 mmol/kg diet
Procedure: (§2) Baseline measurement of initial tumor sizes, numbers and rat body weights were determined immediately before commencement of treatments, and final measurements were recorded just prior to sacrifice of the animals. Animals were palpated for tumors twice weekly and tumor diameters were measured weekly by a micrometer caliper. Tumor volumes were calculated using the formula [V= 4/3 πr^3] where r is one-half the mean of the sum of the largest diameter and the axis at right angle to it. All tumors as well as lungs, liver, kidney and femur were excised at the end of the experiment for chemical and histopathological evaluation. Blood samples were also taken from each animal for determination of plasma retinol and triglyceride levels.
as §1

RARβ = target: T1, RARβ (Homo sapiens, UniProt P10826); assay: Nuclear retinoid receptor binding assay, competition with [3H]all-trans RA; settings: competition for [3H]atRA; present work
T1 sequence (P10826 1-455): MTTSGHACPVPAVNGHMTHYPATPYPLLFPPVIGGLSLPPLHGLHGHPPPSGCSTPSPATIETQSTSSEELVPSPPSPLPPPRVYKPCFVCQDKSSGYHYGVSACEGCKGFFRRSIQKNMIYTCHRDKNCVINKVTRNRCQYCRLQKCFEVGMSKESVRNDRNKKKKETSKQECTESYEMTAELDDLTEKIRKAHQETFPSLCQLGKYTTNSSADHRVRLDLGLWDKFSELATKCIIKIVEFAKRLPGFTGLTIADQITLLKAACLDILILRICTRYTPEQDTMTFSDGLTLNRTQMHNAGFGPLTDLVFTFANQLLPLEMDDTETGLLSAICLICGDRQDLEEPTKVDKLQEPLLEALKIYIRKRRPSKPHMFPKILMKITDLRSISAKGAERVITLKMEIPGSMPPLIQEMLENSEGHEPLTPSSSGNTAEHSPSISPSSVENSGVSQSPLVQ
Procedure: (§3) Nuclear Retinoid Receptor Binding Assay. Competition of 3 and 7 and 4-HBRCGlucose with [^3H]-all-trans-RA (4.2-4.6 nM) for binding to RARβ and RARγ and with [^3H]-9-cis RA (1.9 nM) for binding to RXRγ was determined using an in vitro ligand binding assay.^41, 42 [^3H]-all-trans-RA (40.5 Ci/mmole) or [^3H]-9-cis-RA (69.4 Ci/mmole) was added to receptor-containing extracts in the absence and presence of increasing concentrations of competing ligands at 4° C. for 3 hr. A hydroxylapatite (HAP) assay was used to separate ligand bound to receptor from that free in solution, and the radioactivity associated with the HAP pellet was measured by scintillation counting.

RARγ = target: T2, RARγ (Homo sapiens, UniProt P13631); assay: as above; settings: competition for [3H]atRA; present work
T2 sequence (P13631 1-454): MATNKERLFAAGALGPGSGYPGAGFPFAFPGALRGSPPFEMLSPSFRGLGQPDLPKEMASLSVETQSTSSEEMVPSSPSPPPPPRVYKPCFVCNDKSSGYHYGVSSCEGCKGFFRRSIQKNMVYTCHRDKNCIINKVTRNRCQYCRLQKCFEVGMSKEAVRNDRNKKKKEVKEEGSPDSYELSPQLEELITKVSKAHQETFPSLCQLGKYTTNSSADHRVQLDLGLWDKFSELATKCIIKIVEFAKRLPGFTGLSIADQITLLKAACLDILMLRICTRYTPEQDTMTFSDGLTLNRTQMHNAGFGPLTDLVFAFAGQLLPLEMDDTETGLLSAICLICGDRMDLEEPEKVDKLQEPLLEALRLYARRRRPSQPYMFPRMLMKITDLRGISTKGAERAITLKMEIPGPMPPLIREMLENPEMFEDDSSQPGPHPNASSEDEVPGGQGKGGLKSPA
Procedure: as §3

[3] = Femur bone mineral content; format: in vivo, rat; settings: end of feeding study; FIG. 2B
From the text: Bone Mineral Content. The femur was disarticulated from the leg, and the adhering soft tissue was removed by dissection. Femurs were scanned using the Lunar PIXImus 2 system (Model X2608, General Electric using the LUNAR software version 1.45), and control measurements were made using the small animal quality control phantom. Femurs were scanned 5 times each with re-positioning at each measure. The average value of the bone mineral content (BMC) in grams for each animal is reported as one independent measure.

[4] = Body weight change during retinoid feeding; format: in vivo, rat; settings: relative to baseline body weight over 22 days; 2 mmol/kg diet
Procedure: Animal Studies: Mammary tumors were induced by intragastric intubation of 50-day old female Sprague-Dawley rats (Harlan Industries, Indianapolis, Ind.) with a single dose of 15 mg DMBA in 1.0 ml of sesame oil per rat. The rats were then maintained on a powdered Teklad 22/5 rodent chow diet (W) 8640 (Harlan Industries, Indianapolis, Ind.), and allowed food and water ad libitum. Four months later, rats which had developed palpable tumors were randomly assigned to the experimental groups (4 rats/group). The retinoid-treated groups were fed diets supplemented with 2 mmol/kg diet of atRA, 4-HPR, or 4-HBRCG, respectively. The retinoids were added to the diet in a vehicle consisting of 25 ml of ethanol: tricaprylin (1:4 v/v) plus 2% (w/v) of α-tocopherol as previously described.^9 This vehicle was also added to the control diet. The additives were blended into the chow diets using a Hobart food mixer. The diets were fed in stainless steel feeders designed with food hoppers. The food was replaced weekly with freshly prepared diets. Food consumption was determined once weekly, and from that the average daily consumption/rat was estimated. These diets were continuously fed for 22 days. Animals were also weighted weekly and monitored for general health status and signs of possible toxicity due to treatment.
as §2

CYP26B1 mRNA = assay: Induction of CYP26B1 mRNA in lung (Q-PCR); format: in vivo, rat; settings: at sacrifice, retinoid-fed rats, 2 mmol/kg diet; data not shown

In the case of `CC1=C(/C=C/C(C)=C/C=C/C(C)=C/C(=O)Cc2ccc(CC3OC(C(=O)O)C(O)C(O)C3O)cc2)C(C)(C)CCC1` [4-HBRCG (7), 2,6-Anhydro-7-deoxy-7-[4-(retinoylmethyl)-phenyl]-L-glycero-L-gulo-heptinoic acid], the “Plasma retinoid concentration (terminal plasma drug level)” value [1] is reported as 0.10 ± 0.01 µg/mL, the “Effect on blood retinol” value [2] is reported as “did not produce any significant reduction in blood retinol” and the Plasma retinol ([2]; day 22 of treatment, mean ± SEM) is reported as 0.40 ± 0.04 µg/mL. The “Times less potent than atRA in binding to RARβ” value (RARβ) was 300 times, the “Times less potent than atRA in binding to RARγ” value (RARγ) was 1400 times and the “Effect on femur bone mineral content vs control” value [3] was “showed no such effect”. The “% Weight change” value [4] was “+3%” and the “Induction of CYP26B1 mRNA in lung” value (CYP26B1 mRNA) was “did not induce these cytochrome p450 mRNAs”.
